The values below come from ChEMBL document CHEMBL5247656, “Discovery of a Potent, Cooperative, and Selective SOS1 PROTAC ZZ151 with In Vivo Antitumor Efficacy in KRAS-Mutant Cancers” (J Med Chem, 2023).

Assay [1] addresses T1, von Hippel-Lindau disease tumor suppressor/Son of sevenless homolog 1 (Homo sapiens) (UniProt Q07889+P40337). As to the kind of experiment: PROTAC activity at VHL/SOS1 in human NCI-H441 cells harboring KRAS G12V mutant assessed as induction of SOS1 degradation by measuring maximal efficacy at 1 to 2000 nM incubated for 24 hrs by Immunoblot analysis relative to control. The class given is cell-based. The conditions noted are these: dose 1-2000 nM. On the technique in general: A western blot detects proteins with antibodies after separation by electrophoresis.

The test system of assay [2] is ASPC1. Put plainly: Antitumor activity against human ASPC1 cells harboring KRAS G12D mutant xenografted in BALB/c nude mouse assessed as tumor growth inhibition at 20 mg/kg, ip administered once daily for 3 weeks relative to control. The note with it: ASPC1, 504 h, read-out: TGI. The class given is functional. (Xenograft models place foreign cells or tissue in a host animal.)

In assay [3] the test system is SW-620. Put plainly: Antitumor activity against human SW620 cells harboring KRAS G12V mutant xenografted in BALB/c nude mouse assessed as tumor growth inhibition at 20 mg/kg, ip administered once daily for 2 weeks relative to control. The class given is functional. The conditions noted are these: SW-620, 336 h, read-out: TGI.
For assay [4], the target named is von Hippel-Lindau disease tumor suppressor/Son of sevenless homolog 1 (Homo sapiens, UniProt P40337+Q07889, G12R). Put plainly: PROTAC activity at VHL/SOS1 in human CAL-62 cells harboring KRAS G12R mutant assessed as induction of SOS1 degradation incubated for 24 hrs by Immunoblot analysis. The class given is cell-based.
Assay [5] concerns the target T1, von Hippel-Lindau disease tumor suppressor/Son of sevenless homolog 1 (Homo sapiens). Put plainly: In vivo PROTAC activity at VHL/SOS1 in human SW620 cells harboring KRAS G12V mutant xenografted BALB/c nude mouse assessed as decrease in phosphorylated ERK expression in tumor at 10 to 20 mg/kg, ip administered once daily for 2 weeks by immunohistochemistry analysis. The class given is functional, organism-based. The conditions noted are these: SW-620, dose 10-20 mg/kg.

Assay [6] has the same target. Put plainly: PROTAC activity at VHL/SOS1 in human HPAF-II cells harboring KRAS G12D mutant assessed as induction of SOS1 degradation by measuring maximal efficacy at 1 to 2000 nM incubated for 24 hrs by Immunoblot analysis relative to control. The class given is cell-based. The note with it: dose 1-2000 nM.
Assay [7] shares this target. Put plainly: PROTAC activity at VHL/SOS1 in human HCT-116 cells harboring KRAS G13D mutant assessed as induction of SOS1 degradation by measuring maximal efficacy at 1 to 2000 nM incubated for 24 hrs by Immunoblot analysis relative to control. The conditions noted are these: dose 1-2000 nM. The class given is cell-based.
The target is the same in assay [8]. Put plainly: PROTAC activity at VHL/SOS1 in human ASPC1 cells harboring KRAS G12D mutant assessed as induction of SOS1 degradation by measuring maximal efficacy at 1 to 2000 nM incubated for 24 hrs by Immunoblot analysis relative to control. The class given is cell-based. The note with it: dose 1-2000 nM.
The subject of assay [9] is SW-620. As to the kind of experiment: Antiproliferative activity against human SW620 cells harboring KRAS G12V mutant assessed as inhibition of cell proliferation incubated for 7 days by CellTiterGlo-3D proliferation assay. The class given is functional, cell-based. The note with it: SW-620, 168 h.
Assay [10] addresses T1, von Hippel-Lindau disease tumor suppressor/Son of sevenless homolog 1 (Homo sapiens). Put plainly: In vivo PROTAC activity at VHL/SOS1 in human SW620 cells harboring KRAS G12V mutant xenografted BALB/c nude mouse assessed as decrease in phosphorylated ERK expression at 10 to 20 mg/kg, ip administered once daily for 2 weeks by Immunoblot analysis. The class given is functional, organism-based. The note with it: SW-620, dose 10-20 mg/kg.

A further assay deals with LoVo. Put plainly: Antiproliferative activity against human LoVo cells harboring KRAS G13D mutant assessed as inhibition of cell proliferation incubated for 7 days by CellTiterGlo-3D proliferation assay. The conditions noted are these: 168 h. The class given is functional, cell-based.
Assay [11] has as its target T1, von Hippel-Lindau disease tumor suppressor/Son of sevenless homolog 1 (Homo sapiens). Put plainly: PROTAC activity at VHL/SOS1 in human SK-LU-1 cells harboring KRAS G12D mutant assessed as induction of SOS1 degradation by measuring maximal efficacy at 1 to 2000 nM incubated for 24 hrs by Immunoblot analysis relative to control. The class given is cell-based. The note with it: dose 1-2000 nM.

Assay [12] shares this target. Put plainly: PROTAC activity at VHL/SOS1 in human ASPC1 cells harboring KRAS G12D mutant assessed as induction of SOS1 degradation at 1 uM preincubated with VHL ligand for 4 hrs followed by compound treatment and measured after 24 hrs by immunoblot analysis. The class given is cell-based.
In assay [13] the test system is ASPC1. Put plainly: Antitumor activity against human ASPC1 cells harboring KRAS G12D mutant xenografted in BALB/c nude mouse assessed as tumor growth inhibition at 10 mg/kg, ip administered once daily for 3 weeks relative to control. The class given is functional. The conditions noted are these: ASPC1, 504 h, read-out: TGI.
Assay [14] concerns the target T1, von Hippel-Lindau disease tumor suppressor/Son of sevenless homolog 1 (Homo sapiens). Put plainly: PROTAC activity at VHL/SOS1 in human SNU1 cells harboring KRAS G12D mutant assessed as induction of SOS1 degradation by measuring maximal efficacy at 1 to 2000 nM incubated for 24 hrs by Immunoblot analysis relative to control. The class given is cell-based. The conditions noted are these: dose 1-2000 nM.

For assay [15] the target is unchanged. Put plainly: PROTAC activity at VHL/SOS1 in human ASPC1 cells harboring KRAS G12D mutant assessed as induction of SOS1 degradation at 1 uM preincubated with MG132 for 4 hrs followed by compound treatment and measured after 24 hrs by immunoblot analysis. The class given is cell-based.
Assay [16] has the same target. As to the kind of experiment: In vivo PROTAC activity at VHL/SOS1 in human ASPC1 cells harboring KRAS G12D mutant xenografted BALB/c nude mouse assessed as decrease in phosphorylated ERK expression at 10 to 20 mg/kg, ip administered once daily for 3 weeks by immunohistochemistry analysis. The class given is functional, organism-based. The note with it: dose 10-20 mg/kg.

For assay [17] the target is unchanged. Put plainly: PROTAC activity at VHL/SOS1 in human SNU-C2B cells harboring KRAS G12D mutant assessed as induction of SOS1 degradation by measuring maximal efficacy at 1 to 2000 nM incubated for 24 hrs by Immunoblot analysis relative to control. The conditions noted are these: dose 1-2000 nM. The class given is cell-based.
Assay [18] has as its system SW-620. Put plainly: Antitumor activity against human SW620 cells harboring KRAS G12V mutant xenografted in BALB/c nude mouse assessed as tumor growth inhibition at 10 mg/kg, ip administered once daily for 2 weeks relative to control. The class given is functional. The note with it: SW-620, 336 h, read-out: TGI.
For assay [19], the target named is T1, von Hippel-Lindau disease tumor suppressor/Son of sevenless homolog 1 (Homo sapiens). As to the kind of experiment: PROTAC activity at VHL/SOS1 in human NCI-H358 cells harboring KRAS G12C mutant assessed as induction of SOS1 degradation at 1 uM incubated for 2 to 4 hrs by Immunoblot analysis. The class given is cell-based. The conditions noted are these: time 2-4 hrs.

Active and inactive are the calls of the source. The rule behind the calls is not given here. A value given as a limit tells only on which side of the number the result lay.

T1 sequence (P40337 whole entry, looked up): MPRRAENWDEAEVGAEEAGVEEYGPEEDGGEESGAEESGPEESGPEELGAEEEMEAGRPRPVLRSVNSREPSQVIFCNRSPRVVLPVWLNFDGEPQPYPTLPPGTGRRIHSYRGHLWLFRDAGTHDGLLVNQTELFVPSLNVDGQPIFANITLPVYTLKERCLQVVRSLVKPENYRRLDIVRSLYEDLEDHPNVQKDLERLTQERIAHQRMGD
T1 sequence (Q07889 whole entry, looked up): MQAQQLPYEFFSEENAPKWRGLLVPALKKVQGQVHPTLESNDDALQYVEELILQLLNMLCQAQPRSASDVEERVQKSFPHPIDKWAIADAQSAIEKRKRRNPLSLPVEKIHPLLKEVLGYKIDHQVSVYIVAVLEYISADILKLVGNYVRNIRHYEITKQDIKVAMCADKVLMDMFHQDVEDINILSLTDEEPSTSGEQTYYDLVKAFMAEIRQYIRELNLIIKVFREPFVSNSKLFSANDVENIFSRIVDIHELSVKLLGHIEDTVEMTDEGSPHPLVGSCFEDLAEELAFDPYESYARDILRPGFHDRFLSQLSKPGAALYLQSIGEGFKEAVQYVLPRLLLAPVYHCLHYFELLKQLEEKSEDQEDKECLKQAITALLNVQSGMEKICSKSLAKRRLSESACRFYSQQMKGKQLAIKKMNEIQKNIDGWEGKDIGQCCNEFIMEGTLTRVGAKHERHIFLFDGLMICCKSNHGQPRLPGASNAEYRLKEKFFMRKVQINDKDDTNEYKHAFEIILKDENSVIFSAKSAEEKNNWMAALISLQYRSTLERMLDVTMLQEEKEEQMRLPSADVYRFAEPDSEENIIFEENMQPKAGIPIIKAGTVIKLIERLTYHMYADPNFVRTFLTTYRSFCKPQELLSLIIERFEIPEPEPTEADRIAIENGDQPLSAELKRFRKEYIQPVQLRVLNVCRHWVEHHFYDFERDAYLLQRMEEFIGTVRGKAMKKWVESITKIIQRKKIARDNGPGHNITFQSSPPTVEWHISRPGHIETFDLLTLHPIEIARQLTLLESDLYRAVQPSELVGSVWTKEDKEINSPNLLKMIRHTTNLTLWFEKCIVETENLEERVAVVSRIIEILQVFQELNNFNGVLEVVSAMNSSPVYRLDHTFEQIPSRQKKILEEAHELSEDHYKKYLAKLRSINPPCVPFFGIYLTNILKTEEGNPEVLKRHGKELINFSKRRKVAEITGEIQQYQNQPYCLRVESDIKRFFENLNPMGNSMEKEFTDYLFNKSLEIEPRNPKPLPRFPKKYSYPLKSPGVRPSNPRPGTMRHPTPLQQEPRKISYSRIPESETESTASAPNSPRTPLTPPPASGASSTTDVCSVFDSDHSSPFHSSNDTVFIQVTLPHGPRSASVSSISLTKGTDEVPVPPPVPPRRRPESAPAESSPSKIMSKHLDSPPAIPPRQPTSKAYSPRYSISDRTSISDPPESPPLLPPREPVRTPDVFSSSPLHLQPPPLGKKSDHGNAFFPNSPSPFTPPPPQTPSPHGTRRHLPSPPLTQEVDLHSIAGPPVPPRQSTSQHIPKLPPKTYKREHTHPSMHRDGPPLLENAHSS
Sequence of von Hippel-Lindau disease tumor suppressor/Son of sevenless homolog 1 (P40337 whole entry, looked up, stated change not applied): as the sequence (P40337 whole entry, looked up) above
Sequence of von Hippel-Lindau disease tumor suppressor/Son of sevenless homolog 1 (Q07889 whole entry, looked up, stated change not applied): as the sequence (Q07889 whole entry, looked up) above

One may read the Emax as the greatest response seen or fitted, relative to the assay's reference. What is called EC50 is the concentration that produces a half-maximal response. By IC50 is commonly meant the concentration needed to halve the response being measured. `COc1cc2nc(C)nc(N[C@H](C)c3cc(N)cc(C(F)(F)F)c3)c2cc1C1CCN(C(=O)CCCCCC(=O)N[C@H](C(=O)N2C[C@H](O)C[C@H]2C(=O)N[C@@H](C)c2ccc(-c3scnc3C)cc2)C(C)(C)C)CC1`: the Emax in [1], in assay [6], in assay [7], in assay [8], in [11] and in assay [14] was more than 95% each time. Moreover, the Emax in [17] is more than 95%. Besides, the inhibition in vivo at 20 mg/kg was 70.2% in the assay with ASPC1 [2] and 65.4% in the assay with SW-620 [3]. The 50% effective concentration (EC50) in [4] was 15 nM. The result in assay [5], in assay [10], in assay [16] and in [19] was Active. Also, the IC50 with SW-620 [9] stood at 18.5 nM; with LoVo it was 44.5 nM. The outcome in [12] and in assay [15] was inactive. The inhibition in vivo at 10 mg/kg in the assay on ASPC1 [13] amounted to 38.8%; in the assay on SW-620 [18], 46.5%.
